According to PMC11984407, “A natural small molecule isoginkgetin alleviates hypercholesterolemia and atherosclerosis by targeting ACLY” (Theranostics, 2025):

Key:
[1] = tested on: high and very high cardiovascular risk patients intolerant to statins; design: method as in PMID 36876740; conditions: statin-intolerant patients, LDL-C ≥100 mg/dL; cited from earlier work
[2] = tested on: rhesus monkeys; design: method as in PMID 36873173; conditions: two weeks; cited from earlier work
[3] = Copper-induced LDL oxidation, agarose gel electrophoresis; conditions: varying concentrations, copper 5 μM
Method: Prior to oxidation, EDTA was removed from LDL solutions (YB-001; Yiyuan Biotechnologies, Guangzhou, China). Subsequently, LDL solutions at a concentration of 0.2 mg/mL were incubated with varying concentrations of ISOGK in PBS for one h at 37 °C. The oxidation process was initiated by combining both native LDL and LDL pretreated with ISOGK with copper sulfate (99.0% purity; Jinshanting New Chemical Reagent Factory, Shanghai, China) to achieve a final copper concentration of 5 μM in PBS. This mixture was then incubated at 37 °C. Agarose gel electrophoresis was performed utilizing 0.5% agarose gels prepared in a sodium barbital buffer, following the stipulated electrophoretic methodology. The procedure was carried out in a 0.075 M sodium barbital buffer at a constant voltage of 55 V for a duration of one h. The relative electrophoretic mobility (REM) was determined by calculating the ratio of the migration distance of oxidized LDL to that of native LDL.

Compound: CC(C)(CCCCCC(O)CCCCCC(C)(C)C(=O)O)C(=O)O [Bempedoic acid, bempedoic acid]
- primary composite endpoint vs placebo [1]: slight reduction in the primary composite endpoint

Compound: CC(C)c1c(C(=O)Nc2ccccc2)c(-c2ccccc2)c(-c2ccc(F)cc2)n1CC[C@@H](O)C[C@@H](O)CC(=O)O [atorvastatin]
- LDL-C reduction from the baseline [2]: 19.4%

Compound: Vitamin E [reference compound]
- antioxidant activity against copper-induced LDL oxidation (REM) [3]: retards LDL
